The record followed here is patent publication US20220274945A1, “SUBSTITUTED THIOPHENE CARBOXAMIDES AND DERIVATIVES THEREOF AS MICROBICIDES” (Bayer Aktiengesellschaft, priority 2019, published 2022).

Molecules are shown by their SMILES. A value given as a limit tells only on which side of the number the result lay.

System in the first series: not listed separately
The series is described as follows: Log P by HPLC on reversed phase columns (EEC directive 79/831 Annex V.A8). Type of series: physicochemical.
Conditions: not given
On the procedure:
In the above tables, measurement of Log P values was performed according to EEC directive 79/831 Annex V.A8 by HPLC (High Performance Liquid Chromatography) on reversed phase columns with the following methods: [^a] […] If more than one Log P value is available within the same method, all the values are given and separated by “+”. Calibration was done with straight-chain alkan2-ones (with 3 to 16 carbon atoms) with known Log P values (measurement of Log P values using retention times with linear interpolation between successive alkanones). Lambda-max-values were determined using UV-spectra from 200 nm to 400 nm and the peak values of the chromatographic signals.
Take `O=C(NC1(C(=O)O)CC1)c1sc(Br)c(Br)c1F` [I.02]: the LogP is 2.19^[a].

As to `CCOC(=O)C1(NC(=O)c2sc(Cl)c(Cl)c2I)CC1` [I.04], the LogP was 3.39^[a].

`O=C(NC1(C(=O)OCc2ccccc2)CC1)c1sc(Br)c(Br)c1F` [I.17]: the LogP was 3.94^[a].

As to `O=C(NC1(C(=O)OC2CCCC2)CC1)c1sc(Br)c(Br)c1F` [I.18], the LogP was 3.99^[a].

Regarding `CC(C)(C)OC(=O)C1(NC(=O)c2sc(Br)c(Br)c2F)CC1` [I.19], the LogP was 3.91^[a].

For `CC(C)COC(=O)C1(NC(=O)c2sc(Br)c(Br)c2F)CC1` [I.20], the LogP was 3.92^[a].

`CCCCOC(=O)C1(NC(=O)c2sc(Br)c(Br)c2F)CC1` [I.21]: the LogP was 3.96^[a].

As to `CC(C)OC(=O)C1(NC(=O)c2sc(Br)c(Br)c2F)CC1` [I.22], the LogP is 3.52^[a].

For `C=CCOC(=O)C1(NC(=O)c2sc(Br)c(Br)c2F)CC1` [I.24], the LogP was 3.33^[a].

For `O=C(NC1(C(=O)OCc2ccccc2)CC1)c1sc(Cl)c(Cl)c1Br` [I.25], the LogP is 4.28^[a].

Take `O=C(NC1(C(=O)OC2CCCC2)CC1)c1sc(Cl)c(Cl)c1Br` [I.26]: the LogP is 4.37^[a].

Take `CC(C)COC(=O)C1(NC(=O)c2sc(Cl)c(Cl)c2Br)CC1` [I.28]: the LogP is 4.31^[a].

With `CCCCOC(=O)C1(NC(=O)c2sc(Cl)c(Cl)c2Br)CC1` [I.29], the LogP is 4.34^[a].

Turning to `O=C(NC1(C(=O)OC2CCC2)CC1)c1sc(Cl)c(Cl)c1Br` [I.30], the LogP is 4.07^[a].

As to `CCCOC(=O)C1(NC(=O)c2sc(Cl)c(Cl)c2Br)CC1` [I.31], the LogP is 3.89^[a].

As to `CC(C)OC(=O)C1(NC(=O)c2sc(Cl)c(Cl)c2Br)CC1` [I.32], the LogP is 3.86^[a].

For the compound `C#CCOC(=O)C1(NC(=O)c2sc(Cl)c(Cl)c2Br)CC1` [I.33], the LogP was 3.35^[a].

`C=CCOC(=O)C1(NC(=O)c2sc(Cl)c(Cl)c2Br)CC1` [I.34]: the LogP was 3.66^[a].

For `O=C(NC1(C(=O)OC2CCC2)CC1)c1sc(Br)c(Br)c1I` [I.35], the LogP was 3.99^[a].

For `O=C(NC1(C(=O)OC2CCC2)CC1)c1sc(Br)c(Br)c1F` [I.36], the LogP is 3.71^[a].

Take `CCCOC(=O)C1(NC(=O)c2sc(Br)c(Br)c2F)CC1` [I.37]: the LogP was 3.54^[a].

Turning to `O=C(NC1(C(=O)OC2CCC2)CC1)c1sc(Br)c(Br)c1Br` [I.38], the LogP was 4.10^[a].

Take `CCCOC(=O)C1(NC(=O)c2sc(Br)c(Br)c2Br)CC1` [I.39]: the LogP is 3.92^[a].

With `CCCOC(=O)C1(NC(=O)c2sc(Br)c(Br)c2Cl)CC1` [I.40], the LogP was 3.91^[a].

Consider `CCCOC(=O)C1(NC(=O)c2sc(Br)c(Br)c2I)CC1` [I.41], for which the LogP is 3.85^[a].

On to `O=C(NC1(C(=O)OC2CCC2)CC1)c1sc(Br)c(Br)c1Cl` [I.42], for which the LogP was 4.17^[a].

Take `CCOC(=O)C1(NC(=O)c2sc(Cl)c(Cl)c2F)CC1` [I.44]: the LogP was 3.05^[a].

As for `COC(=O)C1(NC(=O)c2sc(Cl)c(Cl)c2F)CC1` [I.45], the LogP is 2.65^[a].

On to `O=C(NC1(C(=O)OCC2CC2)CC1)c1sc(Cl)c(Cl)c1Br` [I.46], for which the LogP was 4.05^[a].

Turning to `C#CCOC(=O)C1(NC(=O)c2sc(Br)c(Br)c2Br)CC1` [I.47], the LogP is 3.44^[a].

`C=CCOC(=O)C1(NC(=O)c2sc(Br)c(Br)c2Br)CC1` [I.48]: the LogP is 3.77^[a].

As to `CC(C)(C)OC(=O)C1(NC(=O)c2sc(Br)c(Br)c2Br)CC1` [I.49], the LogP is 4.40^[a].

Take `O=C(NC1(C(=O)OCc2ccccc2)CC1)c1sc(Br)c(Br)c1Br` [I.50]: the LogP was 4.37^[a].

On to `C#CCOC(=O)C1(NC(=O)c2sc(Br)c(Br)c2I)CC1` [I.51], for which the LogP is 3.40^[a].

As for `C=CCOC(=O)C1(NC(=O)c2sc(Br)c(Br)c2I)CC1` [I.52], the LogP is 3.71^[a].

As for `O=C(NC1(C(=O)OC2CCCC2)CC1)c1sc(Br)c(Br)c1Br` [I.55], the LogP is 4.47^[a].

With `CC(C)COC(=O)C1(NC(=O)c2sc(Br)c(Br)c2Br)CC1` [I.56], the LogP is 4.40^[a].

For `CCCCOC(=O)C1(NC(=O)c2sc(Br)c(Br)c2Br)CC1` [I.57], the LogP was 4.44^[a].

Regarding `CC(C)OC(=O)C1(NC(=O)c2sc(Br)c(Br)c2Br)CC1` [I.58], the LogP is 3.98^[a].

As for `O=C(NC1(C(=O)OC2CCCC2)CC1)c1sc(Br)c(Br)c1I` [I.59], the LogP is 4.37^[a].

`CC(C)OC(=O)C1(NC(=O)c2sc(Br)c(Br)c2I)CC1` [I.62]: the LogP was 3.87^[a].

Take `O=C(NC1(C(=O)OCC(F)(F)F)CC1)c1sc(Cl)c(Cl)c1Br` [I.64]: the LogP is 3.91^[a].

`C[Si](C)(C)COC(=O)C1(NC(=O)c2sc(Cl)c(Cl)c2Br)CC1` [I.65]: the LogP is 5.00^[a].

On to `O=C(NC1(C(=O)Oc2ccccc2)CC1)c1sc(Cl)c(Cl)c1Br` [I.66], for which the LogP was 4.19^[a].

Turning to `O=C(NC1(C(=O)OCC2CC2)CC1)c1sc(Br)c(Br)c1Br` [I.67], the LogP was 4.02^[a].

In the case of `O=C(NC1(C(=O)OC2CCOCC2)CC1)c1sc(Br)c(Br)c1Br` [I.68], the LogP was 3.26^[a].

On to `C[Si](C)(C)COC(=O)C1(NC(=O)c2sc(Br)c(Br)c2Br)CC1` [I.69], for which the LogP is 4.97^[a].

Turning to `O=C(NC1(C(=O)OC2CCOCC2)CC1)c1sc(Cl)c(Cl)c1Br` [I.70], the LogP is 3.23^[a].

For the compound `O=C(NC1(C(=O)OC2CSC2)CC1)c1sc(Cl)c(Cl)c1Br` [I.71], the LogP is 3.87^[a].

`N#CCOC(=O)C1(NC(=O)c2sc(Br)c(Br)c2Br)CC1` [I.72]: the LogP is 3.16^[a].

Turning to `O=C(NC1(C(=O)OCC(F)(F)F)CC1)c1sc(Br)c(Br)c1Br` [I.74], the LogP was 3.94^[a].

As for `O=C(NC1(C(=O)OC2CSC2)CC1)c1sc(Br)c(Br)c1Br` [I.75], the LogP was 4.85^[a].

`CCOC(=O)C1(NC(=O)c2sc(Br)cc2Cl)CC1` [IVb.01]: the LogP is 2.84^[a].

As for `CCOC(=O)C1(NC(=O)c2sc(Br)cc2I)CC1` [IVb.02], the LogP is 2.98^[a].

With `CCOC(=O)C1(NC(=O)c2sc(Br)cc2F)CC1` [IVb.03], the LogP was 2.46^[a].

Take `CCOC(=O)C1(NC(=O)c2sc(Br)cc2Br)CC1` [IVb.05]: the LogP was 2.92^[a].

For `CCOC(=O)C1(NC(=O)c2sccc2F)CC1` [IVc.01], the LogP was 1.65^[a].

Take `CCOC(=O)C1(NC(=O)c2cc(Br)c(Br)s2)CC1` [V.01]: the LogP is 2.90^[a].

Turning to `CC(C)OC(=O)C1(NC(=O)c2cc(Br)c(Br)s2)CC1` [V.02], the LogP was 3.25^[a].

For `COC(=O)C1(NC(=O)c2cc(Cl)c(Cl)s2)CC1` [V.04], the LogP is 2.49^[a].

Still in this series, the particulars now being: reversed phase HPLC columns, method [a]: LC-UV, acidic range, 0.1% formic acid in water and acetonitrile as eluent.
`CCOC(=O)C1(NC(=O)c2sc(Br)c(Br)c2F)CC1` [I.01, ethyl 1-{[(4,5-dibromo-3-fluoro-2-thienyl)carbonyl]amino}cyclopropanecarboxylate]: the chromatographic logP (usually a lipophilicity value derived from retention on a column) was found to be 3.13.

As to `CCOC(=O)C1(NC(=O)c2scc(Br)c2F)CC1` [IVa.01, Ethyl 1-{[(4-bromo-3-fluoro-2-thienyl)carbonyl]amino}cyclopropanecarboxylate], the chromatographic logP turned out to be 2.37.

Still in this series, the particulars now being: reversed phase HPLC columns, value in the preparation example; method letter not given.
The compound `CCOC(=O)C1(NC(=O)c2sc(Br)c(Br)c2F)CC1` [I.01, ethyl 1-{[(4,5-dibromo-3-fluoro-2-thienyl)carbonyl]amino}cyclopropanecarboxylate] had a chromatographic logP of 3.13.

`CCOC(=O)C1(NC(=O)c2scc(Br)c2F)CC1` [IVa.01, Ethyl 1-{[(4-bromo-3-fluoro-2-thienyl)carbonyl]amino}cyclopropanecarboxylate] came in with a chromatographic logP of 2.39.

A further series relates to Pseudomonas syringae pv. tomato. The series can be described thus: Pseudomonas syringae pv. tomato in vitro cell test. The settings on record: 20 ppm of active ingredient, liquid culture, 24 h incubation, read-out: efficacy (inhibition of bacteria growth). Type of series: cell-based. The method, then:
(§1) • Solvent: DMSO • Culture medium: LB broth medium (Luria Broth Miller) Sigma • Inoculum: bacteria suspension Compounds to be tested were solubilized in DMSO and the solution used to prepare the required range of concentrations. The final concentration of DMSO used in the assay was ≤1%. Inoculum was prepared from a pre-culture of bacteria grown in liquid medium and diluted to the desired optical density (OD). Compounds were evaluated for their ability to inhibit bacteria growth in liquid culture assay. The compounds were added in the desired concentrations to culture medium containing the bacteria suspension. After 24 h of incubation, the efficacy of compounds was determined by spectrometric measurement of bacteria growth. Inhibition was determined by comparing the absorbance values in wells containing the compounds with the absorbance in control wells without compounds.
Turning to `CCOC(=O)C1(NC(=O)c2sc(Br)c(Br)c2F)CC1` [I.01, ethyl 1-{[(4,5-dibromo-3-fluoro-2-thienyl)carbonyl]amino}cyclopropanecarboxylate], the inhibition – broadly, the drop in the measured response relative to a control, in per cent – at 20 ppm is no more than 30%.

`CCOC(=O)C1(NC(=O)c2sc(Cl)c(Cl)c2Br)CC1` [I.03, Ethyl 1-{[(3-bromo-4,5-dichloro-2-thienyl)carbonyl]amino}cyclopropanecarboxylate]: the inhibition at 20 ppm was no more than 30%.

The test system of another series is Botrytis cinerea. The series is described as follows: Botrytis cinerea in vitro cell test. The format is cell-based. Particulars: 120 h, 20 ppm of active ingredient, liquid culture, 5 days incubation, read-out: efficacy (inhibition of fungal growth). The method, then:
• Solvent: DMSO • Culture medium: 14.6 g anhydrous D-glucose (VWR), 7.1 g Mycological Peptone (Oxoid), 1.4 g granulated Yeast Extract (Merck), QSP Iliter • Inoculum: spore suspension
Fungicides were solubilized in DMSO and the solution used to prepare the required range of concentrations. The final concentration of DMSO used in the assay was ≤[…]1%.
A spore suspension of B. cinerea was prepared and diluted to the desired spore density.
Fungicides were evaluated for their ability to inhibit spore germination and mycelium growth in liquid culture assay. The compounds were added in the desired concentration to the culture medium with spores. After 5 days incubation, fungi-toxicity of compounds was determined by spectrometric measurement of mycelium growth. Inhibition of fungal growth was determined by comparing the absorbance values in wells containing the fungicides with the absorbance in control wells without fungicides.
Take `CCOC(=O)C1(NC(=O)c2sc(Br)c(Br)c2F)CC1` [I.01, ethyl 1-{[(4,5-dibromo-3-fluoro-2-thienyl)carbonyl]amino}cyclopropanecarboxylate]: the inhibition at 20 ppm is no more than 30%.

With `CCOC(=O)C1(NC(=O)c2sc(Cl)c(Cl)c2Br)CC1` [I.03, Ethyl 1-{[(3-bromo-4,5-dichloro-2-thienyl)carbonyl]amino}cyclopropanecarboxylate], the inhibition at 20 ppm was no more than 30%.

The test system of a further series is Xanthomonas campestris pv. campestris. The series can be described thus: Xanthomonas campestris pv. campestris in vitro cell test. The settings on record: 20 ppm of active ingredient, liquid culture, 24 h incubation, read-out: efficacy (inhibition of bacteria growth). The format is cell-based. On the procedure:
as §1, with “Compounds” for “Compounds to be tested”, “10%.” for “≤1%.”, “active ingredients.” for “compounds.”
As to `CCOC(=O)C1(NC(=O)c2sc(Br)c(Br)c2F)CC1` [I.01, ethyl 1-{[(4,5-dibromo-3-fluoro-2-thienyl)carbonyl]amino}cyclopropanecarboxylate], the inhibition at 20 ppm was no more than 30%.

Take `CCOC(=O)C1(NC(=O)c2sc(Cl)c(Cl)c2Br)CC1` [I.03, Ethyl 1-{[(3-bromo-4,5-dichloro-2-thienyl)carbonyl]amino}cyclopropanecarboxylate]: the inhibition at 20 ppm is no more than 30%.
